# Laboratory results from ChEMBL document CHEMBL1795320, “Synthesis and antibacterial activity of novel 4″-O-benzimidazolyl clarithromycin derivatives” (2011).
# What was measured:
# Assay type in all cases: functional
# [1] = system: Streptococcus pneumoniae; assay: Antibacterial activity against erythromycin-resistant Streptococcus pneumoniae B1 expressing erm gene by broth microdilution method
# [2] = system: Streptococcus pneumoniae; assay: Antibacterial activity against erythromycin-resistant Streptococcus pneumoniae AB11 expressing erm and mef gene by broth microdilution method
# [3] = system: Streptococcus pneumoniae; assay: Antibacterial activity against erythromycin-resistant Streptococcus pneumoniae A22072 expressing mef gene by broth microdilution method
# [4] = system: Staphylococcus aureus; assay: Antibacterial activity against erythromycin-susceptible Staphylococcus aureus ATCC 25923 by broth microdilution method
# [5] = system: Streptococcus pneumoniae; assay: Antibacterial activity against erythromycin-susceptible Streptococcus pneumoniae ATCC 49619 by broth microdilution method
# [6] = system: Streptococcus pneumoniae; assay: Ratio of clarithromycin MIC to compound MIC for erythromycin-resistant Streptococcus pneumoniae A22072 expressing mef gene
# [7] = system: Streptococcus pneumoniae; assay: Ratio of erythromycin MIC to compound MIC for erythromycin-resistant Streptococcus pneumoniae A22072 expressing mef gene
# [8] = system: Streptococcus pneumoniae; assay: Ratio of erythromycin MIC to compound MIC for erythromycin-resistant Streptococcus pneumoniae B1 expressing erm gene
# [9] = system: Streptococcus pneumoniae; assay: Ratio of azithromycin MIC to compound MIC for erythromycin-resistant Streptococcus pneumoniae B1 expressing erm gene
# [10] = system: Streptococcus pneumoniae; assay: Ratio of clarithromycin MIC to compound MIC for erythromycin-resistant Streptococcus pneumoniae B1 expressing erm gene
SMILES,MIC [1],MIC [2],MIC [3],MIC [4],MIC [5],Ratio [6],Ratio [7],Ratio [8],Ratio [9],Ratio [10]
CC[C@H]1OC(=O)[C@H](C)[C@@H](O[C@H]2C[C@@](C)(OC)[C@@H](O)[C@H](C)O2)[C@H](C)[C@@H](O[C@@H]2O[C@H](C)C[C@H](N(C)C)[C@H]2O)[C@](C)(O)C[C@@H](C)CN(C)[C@H](C)[C@@H](O)[C@]1(C)O [AZITHROMYCIN],128 µg/mL,256 µg/mL,4 µg/mL,0.12 µg/mL,0.12 µg/mL,–,–,–,–,–
CC[C@H]1OC(=O)[C@H](C)[C@@H](O[C@H]2C[C@@](C)(OC)[C@@H](OC(=O)NNC(=O)c3ccc4[nH]c(-c5ccccc5Cl)nc4c3)[C@H](C)O2)[C@H](C)[C@@H](O[C@@H]2O[C@H](C)C[C@H](N(C)C)[C@H]2O)[C@](C)(OC)C[C@@H](C)C(=O)[C@H](C)[C@@H](O)[C@]1(C)O,32 µg/mL,32 µg/mL,0.03 µg/mL,0.06 µg/mL,0.03 µg/mL,133,267,–,–,–
CC[C@H]1OC(=O)[C@H](C)[C@@H](O[C@H]2C[C@@](C)(OC)[C@@H](OC(=O)NNC(=O)c3ccc4[nH]c(-c5cccc(OC)c5)nc4c3)[C@H](C)O2)[C@H](C)[C@@H](O[C@@H]2O[C@H](C)C[C@H](N(C)C)[C@H]2O)[C@](C)(OC)C[C@@H](C)C(=O)[C@H](C)[C@@H](O)[C@]1(C)O,16 µg/mL,32 µg/mL,0.03 µg/mL,0.12 µg/mL,0.03 µg/mL,133,267,–,–,–
CC[C@H]1OC(=O)[C@H](C)[C@@H](O[C@H]2C[C@@](C)(OC)[C@@H](OC(=O)NNC(=O)c3ccc4[nH]c(C(C)C)nc4c3)[C@H](C)O2)[C@H](C)[C@@H](O[C@@H]2O[C@H](C)C[C@H](N(C)C)[C@H]2O)[C@](C)(OC)C[C@@H](C)C(=O)[C@H](C)[C@@H](O)[C@]1(C)O,16 µg/mL,64 µg/mL,0.12 µg/mL,0.12 µg/mL,0.12 µg/mL,–,–,–,–,–
CCCc1nc2cc(C(=O)NNC(=O)O[C@H]3[C@H](C)O[C@@H](O[C@H]4[C@H](C)[C@@H](O[C@@H]5O[C@H](C)C[C@H](N(C)C)[C@H]5O)[C@](C)(OC)C[C@@H](C)C(=O)[C@H](C)[C@@H](O)[C@](C)(O)[C@@H](CC)OC(=O)[C@@H]4C)C[C@@]3(C)OC)ccc2[nH]1,64 µg/mL,64 µg/mL,0.12 µg/mL,0.25 µg/mL,0.12 µg/mL,–,–,–,–,–
CC[C@H]1OC(=O)[C@H](C)[C@@H](O[C@H]2C[C@@](C)(OC)[C@@H](O)[C@H](C)O2)[C@H](C)[C@@H](O[C@@H]2O[C@H](C)C[C@H](N(C)C)[C@H]2O)[C@](C)(O)C[C@@H](C)C(=O)[C@H](C)[C@@H](O)[C@]1(C)O [ERYTHROMYCIN],128 µg/mL,256 µg/mL,8 µg/mL,0.12 µg/mL,0.12 µg/mL,–,–,–,–,–
CC[C@H]1OC(=O)[C@H](C)[C@@H](O[C@H]2C[C@@](C)(OC)[C@@H](OC(=O)NNC(=O)c3ccc4[nH]c(-c5ccc(Cl)cc5)nc4c3)[C@H](C)O2)[C@H](C)[C@@H](O[C@@H]2O[C@H](C)C[C@H](N(C)C)[C@H]2O)[C@](C)(OC)C[C@@H](C)C(=O)[C@H](C)[C@@H](O)[C@]1(C)O,8 µg/mL,16 µg/mL,0.03 µg/mL,0.5 µg/mL,0.03 µg/mL,133,267,–,–,–
CC[C@H]1OC(=O)[C@H](C)[C@@H](O[C@H]2C[C@@](C)(OC)[C@@H](OC(=O)NNC(=O)c3ccc4[nH]c(C(F)(F)F)nc4c3)[C@H](C)O2)[C@H](C)[C@@H](O[C@@H]2O[C@H](C)C[C@H](N(C)C)[C@H]2O)[C@](C)(OC)C[C@@H](C)C(=O)[C@H](C)[C@@H](O)[C@]1(C)O,32 µg/mL,64 µg/mL,0.12 µg/mL,0.25 µg/mL,0.12 µg/mL,–,–,–,–,–
CC[C@H]1OC(=O)[C@H](C)[C@@H](O[C@H]2C[C@@](C)(OC)[C@@H](OC(=O)NNC(=O)c3ccc4[nH]c(-c5ccc(C)cc5)nc4c3)[C@H](C)O2)[C@H](C)[C@@H](O[C@@H]2O[C@H](C)C[C@H](N(C)C)[C@H]2O)[C@](C)(OC)C[C@@H](C)C(=O)[C@H](C)[C@@H](O)[C@]1(C)O,2 µg/mL,16 µg/mL,0.03 µg/mL,0.25 µg/mL,0.12 µg/mL,133,267,64,64,64
CC[C@H]1OC(=O)[C@H](C)[C@@H](O[C@H]2C[C@@](C)(OC)[C@@H](OC(=O)NNC(=O)c3ccc4[nH]cnc4c3)[C@H](C)O2)[C@H](C)[C@@H](O[C@@H]2O[C@H](C)C[C@H](N(C)C)[C@H]2O)[C@](C)(OC)C[C@@H](C)C(=O)[C@H](C)[C@@H](O)[C@]1(C)O,32 µg/mL,32 µg/mL,1 µg/mL,0.5 µg/mL,0.12 µg/mL,–,–,–,–,–
